Tested on: library of 8,380 IKZF3 degrons (ZF-eGFP/mCherry reporter) in Jurkat cells
Assay: Pooled library screen (FACS, NGS, limma voom LogFC of positive vs negative read counts)
Assay type: cell-based, human
Procedure: A library of 8,380 IKZF3 degrons was cloned into pLVX-Sprout to create the eGFP/mCherry protein degradation reporter plasmid pool. A lentivirus pool was then generated using the Lenti-X lentiviral vector production method.
Jurkat cells were transduced at a multiplicity of infection of <0.3 with the lentivirus vector library in order to maximise the number of cells with a single integration. Transductions were carried out in 6 well TC-treated cell culture dishes (Falcon) with 3×10^6 cells per well. Cells were incubated for 2 days at 37° C. and 5% CO2 before the supernatant was removed and replaced with fresh media. 6 days post-transduction, mCherry+ cells were isolated via FACS using the FACS Aria Fusion (BD) in a buffer containing PBS (Gibco), 2 mM EDTA (Gibco), 25 mM HEPES (Sigma) and 1% BSA (Sigma). 8 days later, cells were treated with DMSO or a thalidomide analog for 18 hours at 37° C. and 5% CO2. mCherry+GFPlow and NOT(mCherry+GFPlow) cells were sorted by FACS using the FACS Aria Fusion (BD). DMSO treated cells were used to set the mCherry+GFPlow gate and dead cells were excluded from sorting by staining cells with 1 μg/mL DAPI (ThermoFisher). gDNA was isolated using the Maxwell RSC 48 (Promega). gDNA from cells that were unsorted and untreated were also isolated to determine the library representation on the day of compound treatment. Throughout the screen >600× coverage of the library was maintained. 3 biological replicates were carried out with a new transduction taking place each time.
A two-step PCR was used where the first PCR (PCR1) amplified the integrated degron sequence from gDNA and the second PCR (PCR2) added Illumina adaptors and barcodes to permit multiplexing. See Supp F for PCR1 and PCR2 primers. Q5 Hot Start High-Fidelity 2× Master Mix (New England Biolabs) was used for both PCRs. Sufficient gDNA was amplified in PCR1 in order to maintain >600× coverage and amplicons were purified using solid phase reversible immobilization (SPRI) beads (Beckman Coulter). Purified PCR1 products were analysed on the Tapestation 4200 (Agilent) to confirm purity prior to proceeding to PCR2. Sufficient PCR1 product was amplified in PCR2 in order to maintain >600× coverage and amplicons were run on a 2% agarose TAE gel. Target bands were excised and purified using the NucleoSpin Gel and PCR Clean-up Kit (Machery Nagel). Amplicons were analysed on the Tapestation 4200 and quantified using Qubit dsDNA HS kit (ThermoFisher). PCR products were pooled and sequenced as paired-reads on the NovaSeq (Illumina) using a SP2 200 cycles kit (Illumina).
Count distributions, percentage of read mapping, library coverage and replicate correlation per sample were assessed for QC purposes.
To carry out the library screen, we used the same plasmid construct as in our earlier flow cytometry assays, but pooling all 8,380 mutants together into one Jurkat population, ensuring a copy number of one plasmid per cell (FIG. 4B). […] These GFP-negative cells were then separated from the remaining GFP-positive population using fluorescence activated cell sorting (FACS). These two populations were then sequenced and the relative abundance of every mutant in both populations compared to provide a log FC value for each mutant sequence. This value indicated how frequently a sequence is observed in the GFP-negative population relative to the GFP-positive population, and therefore how effective a degron it is for that particular IMID compound.

SMILES: O=C1CCC(N2C(=O)c3ccccc3C2=O)C(=O)N1 (centres unmarked) [A32, 2-(2,6-dioxopiperidin-3-yl)isoindoline-1,3-dione]
- A32_logFC (Degron-ID 794, SEQ ID NO 61, 46F_47E_49E_50I_52G_53A_54R_55F_67L): 3.549
- A32_logFC (Degron-ID 834, SEQ ID NO 125, 46F_47E_49E_50V_52G_53A_54R_55F_67L): 3.292
- A32_logFC (Degron-ID 911, SEQ ID NO 130, 46F_47E_49P_50I_52G_53A_54N_55F_67L): 3.269
- A32_logFC (Degron-ID 914, SEQ ID NO 108, 46F_47E_49P_50I_52G_53A_54R_55F_67L): 3.367
- A32_logFC (Degron-ID 915, SEQ ID NO 119, 46F_47E_49P_50I_52G_53A_54S_55F_67L): 3.325
- A32_logFC (Degron-ID 917, SEQ ID NO 116, 46F_47E_49P_50I_52G_53A_54V_55F_67L): 3.331
- A32_logFC (Degron-ID 1752, SEQ ID NO 91, 46F_47I_49E_50I_52G_53A_54P_55F_67L): 3.433
- A32_logFC (Degron-ID 2392, SEQ ID NO 93, 46F_47L_49P_50V_52G_53A_54P_55F_67L): 3.414
- A32_logFC (Degron-ID 2881, SEQ ID NO 123, 46F_47Q_49D_50I_52G_53A_54C_55F_67L): 3.299
- A32_logFC (Degron-ID 2887, SEQ ID NO 82, 46F_47Q_49D_50I_52G_53A_54I_55F_67L): 3.467
- A32_logFC (Degron-ID 2888, SEQ ID NO 126, 46F_47Q_49D_50I_52G_53A_54K_55F_67L): 3.282
- A32_logFC (Degron-ID 2892, SEQ ID NO 112, 46F_47Q_49D_50I_52G_53A_54P_55F_67L): 3.346
- A32_logFC (Degron-ID 2941, SEQ ID NO 79, 46F_47Q_49E_50I_52G_53A_54C_55F_67L): 3.477
- A32_logFC (Degron-ID 2943, SEQ ID NO 71, 46F_47Q_49E_50I_52G_53A_54E_55F_67L): 3.525
- A32_logFC (Degron-ID 2948, SEQ ID NO 84, 46F_47Q_49E_50I_52G_53A_54K_55F_67L): 3.461
- A32_logFC (Degron-ID 2949, SEQ ID NO 65, 46F_47Q_49E_50I_52G_53A_54L_55F_67L): 3.534
- A32_logFC (Degron-ID 2950, SEQ ID NO 54, 46F_47Q_49E_50I_52G_53A_54M_55F_67L): 3.574
- A32_logFC (Degron-ID 2953, SEQ ID NO 58, 46F_47Q_49E_50I_52G_53A_54Q_55F_67L): 3.557
- A32_logFC (Degron-ID 2956, SEQ ID NO 137, 46F_47Q_49E_50I_52G_53A_54T_55F_67L): 3.256
- A32_logFC (Degron-ID 2988, SEQ ID NO 97, 46F_47Q_49E_50V_52G_53A_54K_55F_67L): 3.401
- A32_logFC (Degron-ID 2990, SEQ ID NO 72, 46F_47Q_49E_50V_52G_53A_54M_55F_67L): 3.522
- A32_logFC (Degron-ID 2991, SEQ ID NO 55, 46F_47Q_49E_50V_52G_53A_54N_55F_67L): 3.561
- A32_logFC (Degron-ID 2992, SEQ ID NO 64, 46F_47Q_49E_50V_52G_53A_54P_55F_67L): 3.535
- A32_logFC (Degron-ID 2995, SEQ ID NO 67, 46F_47Q_49E_50V_52G_53A_54S_55F_67L): 3.531
- A32_logFC (Degron-ID 3000, SEQ ID NO 100, 46F_47Q_49N_50I_52G_53A_54A_55F_67L): 3.386
- A32_logFC (Degron-ID 3001, SEQ ID NO 105, 46F_47Q_49N_50I_52G_53A_54C_55F_67L): 3.375
- A32_logFC (Degron-ID 3007, SEQ ID NO 7, 46F_47Q_49N_50I_52G_53A_54I_55F_67L): 3.811
- A32_logFC (Degron-ID 3008, SEQ ID NO 134, 46F_47Q_49N_50I_52G_53A_54K_55F_67L): 3.259
- A32_logFC (Degron-ID 3013, SEQ ID NO 127, 46F_47Q_49N_50I_52G_53A_54Q_55F_67L): 3.279
- A32_logFC (Degron-ID 3014, SEQ ID NO 133, 46F_47Q_49N_50I_52G_53A_54R_55F_67L): 3.262
- A32_logFC (Degron-ID 3015, SEQ ID NO 114, 46F_47Q_49N_50I_52G_53A_54S_55F_67L): 3.343
- A32_logFC (Degron-ID 3016, SEQ ID NO 6, 46F_47Q_49N_50I_52G_53A_54T_55F_67L): 3.867
- A32_logFC (Degron-ID 3017, SEQ ID NO 80, 46F_47Q_49N_50I_52G_53A_54V_55F_67L): 3.473
- A32_logFC (Degron-ID 3047, SEQ ID NO 106, 46F_47Q_49N_50V_52G_53A_54I_55F_67L): 3.374
- A32_logFC (Degron-ID 3057, SEQ ID NO 94, 46F_47Q_49N_50V_52G_53A_54V_55F_67L): 3.409
- A32_logFC (Degron-ID 3060, SEQ ID NO 68, 46F_47Q_49P_50I_52G_53A_54A_55F_67L): 3.529
- A32_logFC (Degron-ID 3062, SEQ ID NO 8, 46F_47Q_49P_50I_52G_53A_54D_55F_67L): 3.806
- A32_logFC (Degron-ID 3066, SEQ ID NO 120, 46F_47Q_49P_50I_52G_53A_54H_55F_67L): 3.318
- A32_logFC (Degron-ID 3067, SEQ ID NO 10, 46F_47Q_49P_50I_52G_53A_54I_55F_67L): 3.792
- A32_logFC (Degron-ID 3068, SEQ ID NO 90, 46F_47Q_49P_50I_52G_53A_54K_55F_67L): 3.436
- A32_logFC (Degron-ID 3069, SEQ ID NO 107, 46F_47Q_49P_50I_52G_53A_54L_55F_67L): 3.373
- A32_logFC (Degron-ID 3071, SEQ ID NO 50, 46F_47Q_49P_50I_52G_53A_54N_55F_67L): 3.58
- A32_logFC (Degron-ID 3074, SEQ ID NO 62, 46F_47Q_49P_50I_52G_53A_54R_55F_67L): 3.549
- A32_logFC (Degron-ID 3075, SEQ ID NO 11, 46F_47Q_49P_50I_52G_53A_54S_55F_67L): 3.79
- A32_logFC (Degron-ID 3076, SEQ ID NO 56, 46F_47Q_49P_50I_52G_53A_54T_55F_67L): 3.56
- A32_logFC (Degron-ID 3079, SEQ ID NO 109, 46F_47Q_49P_50I_52G_53A_54Y_55F_67L): 3.361
- A32_logFC (Degron-ID 3080, SEQ ID NO 129, 46F_47Q_49P_50Q_52G_53A_54A_55F_67L): 3.273
- A32_logFC (Degron-ID 3081, SEQ ID NO 138, 46F_47Q_49P_50Q_52G_53A_54C_55F_67L): 3.255
- A32_logFC (Degron-ID 3097, SEQ ID NO 92, 46F_47Q_49P_50Q_52G_53A_54V_55F_67L): 3.423
- A32_logFC (Degron-ID 3101, SEQ ID NO 83, 46F_47Q_49P_50V_52G_53A_54C_55F_67L): 3.465

— US20260284208A1, “SYSTEM” (Oxford University Innovation Limited, priority 2023, published 2026)
